Reference: ChEMBL document CHEMBL1201862, “PubChem BioAssay data set” (2004)
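All cell lines were grown in 96-well plates and treated with compound for 48 hours. Here, GI50 denotes the concentration required for 50% inhibition of growth.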 Calls of active or inactive are those of the source. Cut-off read from the data, not from the text of the source: active = GI50 up to about 1.1 µM and inactive = higher.

Legend:
Assay in all cases: DTP human tumour cell line panel, 48 h
OVCAR-3 = test system: OVCAR-3
CAKI-1 = test system: CAKI-1
OVCAR-8 = test system: OVCAR-8
OVCAR-5 = test system: OVCAR-5
ACHN = test system: ACHN
SNB-19 = test system: SNB-19
M14 = test system: M14
EKVX = test system: EKVX
SK-MEL-2 = test system: SK-MEL-2
HOP-92 = test system: HOP-92
SNB-75 = test system: SNB-75
K562 = test system: K562
NCI-H23 = test system: NCI-H23
A498 = test system: A498
CCRF-CEM = test system: CCRF-CEM
TK-10 = test system: TK-10
NCI-H226 = test system: NCI-H226

Measured: GI50

COC(=O)/C(Cl)=C1/CC1COCc1ccccc1 (stereo not given)
inactive: OVCAR-3 23.2 µM | CAKI-1 22.6 µM | OVCAR-8 30.5 µM | OVCAR-5 74.3 µM | ACHN 25.4 µM | SNB-19 78.9 µM | M14 17 µM | EKVX > 10 µM | SK-MEL-2 31.9 µM | HOP-92 22.9 µM | SNB-75 47.8 µM | K562 17.9 µM | NCI-H23 31.5 µM | A498 22.6 µM | CCRF-CEM 14 µM | TK-10 30.8 µM | NCI-H226 32.3 µM

Cn1nc(S(N)(=O)=O)s/c1=N/S(=O)(=O)c1ccc(N)cc1
inactive: OVCAR-3 > 100 µM | CAKI-1 > 100 µM | OVCAR-8 > 100 µM | OVCAR-5 > 100 µM | ACHN > 100 µM | SNB-19 > 100 µM | M14 > 100 µM | EKVX > 100 µM | SK-MEL-2 > 100 µM | HOP-92 > 100 µM | SNB-75 > 100 µM | NCI-H23 > 100 µM | A498 > 100 µM | TK-10 > 100 µM | NCI-H226 > 100 µM

CC(=O)Nc1ccc(C2CC(c3ccc([N+](=O)[O-])cc3)=Nc3ccccc3[S+]2[O-])cc1 (stereo not given)
inactive: OVCAR-3 25.3 µM | CAKI-1 > 10 µM | OVCAR-8 30.5 µM | OVCAR-5 50.6 µM | ACHN 20.6 µM | SNB-19 36.8 µM | M14 27.9 µM | EKVX 36.5 µM | SK-MEL-2 27.4 µM | SNB-75 16.9 µM | K562 4.58 µM | NCI-H23 21.5 µM | CCRF-CEM 11.4 µM | TK-10 28.8 µM | NCI-H226 20.4 µM

CCOc1ccc2c(c1)[n+]([O-])c(-c1ccccc1)c(N)[n+]2[O-]
inactive: OVCAR-3 82.2 µM | CAKI-1 35.6 µM | OVCAR-8 78.5 µM | OVCAR-5 > 100 µM | ACHN 55.1 µM | SNB-19 > 100 µM | M14 81.5 µM | EKVX 89.1 µM | SK-MEL-2 > 100 µM | SNB-75 > 100 µM | K562 45 µM | NCI-H23 29.9 µM | A498 82.6 µM | CCRF-CEM 50.7 µM | TK-10 > 100 µM | NCI-H226 > 100 µM

Nc1ccc(C(=O)NN2C(=O)C(Cl)C2c2cccc([N+](=O)[O-])c2)cc1 (stereo not given)
inactive: OVCAR-3 20.5 µM | CAKI-1 19.5 µM | OVCAR-8 18.1 µM | OVCAR-5 21.1 µM | ACHN 20.1 µM | SNB-19 17.3 µM | M14 23 µM | EKVX 28.2 µM | SK-MEL-2 16.8 µM | HOP-92 21.4 µM | SNB-75 18.7 µM | K562 20.8 µM | NCI-H23 16.4 µM | A498 28.5 µM | CCRF-CEM 9.79 µM | TK-10 18.7 µM | NCI-H226 20.2 µM

COc1ccc(S(=O)(=O)NC(C)C(=O)O)cc1 (stereo not given)
inactive: OVCAR-3 > 100 µM | CAKI-1 > 100 µM | OVCAR-8 > 100 µM | OVCAR-5 > 100 µM | ACHN > 100 µM | SNB-19 > 100 µM | M14 > 100 µM | EKVX > 100 µM | SK-MEL-2 > 100 µM | HOP-92 > 100 µM | SNB-75 70.5 µM | K562 > 100 µM | NCI-H23 > 100 µM | A498 > 100 µM | CCRF-CEM > 100 µM | TK-10 > 100 µM

Clc1ccc(C2=NN(c3ccccc3)C3c4cc(Br)ccc4OCC23)cc1 (stereo not given)
inactive: OVCAR-3 > 100 µM | OVCAR-8 > 100 µM | OVCAR-5 > 100 µM | ACHN > 100 µM | SNB-19 > 100 µM | EKVX > 100 µM | SK-MEL-2 > 100 µM | HOP-92 > 100 µM | SNB-75 > 100 µM | K562 33.8 µM | NCI-H23 86.9 µM | A498 > 100 µM | CCRF-CEM 61.9 µM | TK-10 > 100 µM
